Test results published in PMC10922308 (Cell chemical biology, 2023).

Tests used:
Assay type in all cases: cell-based
PIM1 [1] = molecular target: T1, PIM1 (Homo sapiens, UniProt P11309); test: PROTAC degradation immunoblot in PC3-dox-PIM1 cells
PIM1 [2] = molecular target: T1, PIM1
PIM1 [3] = molecular target: T1, PIM1; test: PROTAC degradation immunoblot in PC3-dox-PIM1 cells; remark: listed apart in the source
PIM2 = PIM2 (Homo sapiens, UniProt Q9P1W9); test: PROTAC degradation immunoblot in PC3 cells
PIM3 = PIM3 (Homo sapiens, UniProt Q86V86); test: PROTAC degradation immunoblot in PC3 cells
Chain of PIM3 (P40337 whole entry partner): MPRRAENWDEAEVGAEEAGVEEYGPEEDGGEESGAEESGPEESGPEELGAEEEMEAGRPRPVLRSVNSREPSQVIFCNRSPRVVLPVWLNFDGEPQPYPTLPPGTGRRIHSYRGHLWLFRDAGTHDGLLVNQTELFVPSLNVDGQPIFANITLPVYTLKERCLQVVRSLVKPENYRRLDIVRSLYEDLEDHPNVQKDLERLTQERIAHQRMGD

T1 sequence (P11309 whole entry): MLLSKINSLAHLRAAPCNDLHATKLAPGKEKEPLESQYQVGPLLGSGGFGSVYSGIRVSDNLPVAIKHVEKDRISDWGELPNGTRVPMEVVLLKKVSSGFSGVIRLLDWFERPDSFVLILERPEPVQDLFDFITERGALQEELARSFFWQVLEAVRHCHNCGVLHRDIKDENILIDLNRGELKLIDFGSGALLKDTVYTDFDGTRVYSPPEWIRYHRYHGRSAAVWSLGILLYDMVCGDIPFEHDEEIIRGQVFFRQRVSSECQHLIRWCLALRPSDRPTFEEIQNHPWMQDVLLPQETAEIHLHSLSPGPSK
T1 sequence (P40337 whole entry partner): as the sequence (P40337 whole entry partner) above
Chain of PIM2 (Q9P1W9 whole entry): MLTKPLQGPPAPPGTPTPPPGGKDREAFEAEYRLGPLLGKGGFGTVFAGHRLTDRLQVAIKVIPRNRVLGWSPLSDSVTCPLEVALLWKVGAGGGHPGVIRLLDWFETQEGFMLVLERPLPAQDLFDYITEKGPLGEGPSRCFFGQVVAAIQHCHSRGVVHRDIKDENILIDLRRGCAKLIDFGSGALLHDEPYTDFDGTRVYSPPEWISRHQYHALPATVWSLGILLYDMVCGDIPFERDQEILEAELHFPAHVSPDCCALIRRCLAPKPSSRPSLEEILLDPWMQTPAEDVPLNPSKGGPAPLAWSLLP
Chain of PIM2 (P40337 whole entry partner): as the sequence (P40337 whole entry partner) above

SMILES: Cc1ncsc1-c1ccc([C@H](C)NC(=O)[C@@H]2C[C@@H](O)CN2C(=O)[C@@H](NC(=O)CCCCCCC(=O)N[C@H]2CCCN(c3c(/C=C4\SC(=O)NC4=O)cccc3-c3ccccc3)C2)C(C)(C)C)cc1 [AZD1208-VHL-01, N^1-((S)-1-(3-((Z)-(2,4-dioxothiazolidin-5-ylidene)methyl)-[1,1’-biphenyl]-2-yl)piperidin-3-yl)-N^8-((S)-1-((2S,4R)-4-hydroxy-2-(((S)-1-(4-(4-methylthiazol-5-yl)phenyl)ethyl)carbamoyl)pyrrolidin-1-yl)-3,3-dimethyl-1-oxobutan-2-yl)octanediamide]
- PROTAC degradation immunoblot in PC3-dox-PIM1 cells (PIM1 [1]): 6.25 µM

SMILES: Cc1ncsc1-c1ccc([C@H](C)NC(=O)[C@@H]2C[C@@H](O)CN2C(=O)[C@@H](NC(=O)CCCCCCC(=O)N[C@@H]2CC(c3ccncc3NC(=O)c3ccc(F)c(-c4c(F)cccc4F)n3)C[C@H](C)C2)C(C)(C)C)cc1 (stereo partly drawn) [PIM447-VHL-01, N^1-((1S,5S)-3-(3-(6-(2,6-difluorophenyl)-5-fluoropicolinamido)pyridin-4-yl)-5-methylcyclohexyl)-N^8-((S)-1-((2S,4R)-4-hydroxy-2-(((S)-1-(4-(4-methylthiazol-5-yl)phenyl)ethyl)carbamoyl)pyrrolidin-1-yl)-3,3-dimethyl-1-oxobutan-2-yl)octanediamide]
- PROTAC degradation immunoblot in PC3 cells, with VH298, MG-132, MLN4924, cis-epi (PIM1 [2]): 0.75 µM

SMILES: Cc1ncsc1-c1ccc([C@H](C)NC(=O)[C@@H]2C[C@@H](O)CN2C(=O)[C@@H](NC(=O)CCOCCOCCN2CCC(CNc3ccc4ncc(-c5cccc(OC(F)(F)F)c5)n4n3)CC2)C(C)(C)C)cc1 [SGI-1776-VHL-01, (2S,4R)-1-((S)-3,3-dimethyl-2-(3-(2-(2-(4-(((3-(3-(trifluoromethoxy)phenyl)imidazo[1,2-b]pyridazin-6-yl)amino)methyl)piperidin-1-yl)ethoxy)ethoxy)propanamido)butanoyl)-4-hydroxy-N-((S)-1-(4-(4-methylthiazol-5-yl)phenyl)ethyl)pyrrolidine-2-carboxamide]
- PROTAC degradation immunoblot in PC3-dox-PIM1 cells (hook effect seen) (PIM1 [3]): 0.75 µM

SMILES: Cc1ncsc1-c1ccc([C@H](C)NC(=O)[C@@H]2C[C@@H](O)CN2C(=O)[C@@H](NC(=O)CCCCCCC(=O)N2CCC(CNc3ccc4ncc(-c5cccc(OC(F)(F)F)c5)n4n3)CC2)C(C)(C)C)cc1 [SGI-1776-VHL-02, (2S,4R)-1-((S)-3,3-dimethyl-2-(8-oxo-8-(4-(((3-(3-(trifluoromethoxy)phenyl)imidazo[1,2-b]pyridazin-6-yl)amino)methyl)piperidin-1-yl)octanamido)butanoyl)-4-hydroxy-N-((S)-1-(4-(4-methylthiazol-5-yl)phenyl)ethyl)pyrrolidine-2-carboxamide]
- PROTAC degradation immunoblot in PC3 cells (PIM2): 3.75 µM
- PROTAC degradation immunoblot in PC3 cells (PIM3): 1.5 µM
- PROTAC degradation immunoblot in PC3 cells, with VH298, MG-132, MLN4924, cis-epi (PIM1 [2]): 0.75 µM
